Like-named read-outs stand apart in the source and are kept apart here. Blank lines part the entries; values can stand above or below the molecule they belong to.
How the values were obtained:
[1] = ref PubChem database, cited from earlier work
in vitro = details: for PAMPA-BBB log Pe (cm s−1): pH 7.4
Procedure: The PAMPA-BBB assay was conducted according to the methodology followed by Di et al., with some modifications as described below ([15]). First, the BBB solution was prepared by dissolving 8 mg of PBL and 4 mg of cholesterol in 600 μl of n-dodecane. The initial donor solution was prepared by mixing 1 ml of extract (10 mg ml^−1 in EtOH) with 1 ml of buffer (PBS, pH = 7.4, 10 mM). The filter membrane of the donor plate was carefully coated with 5 μl of BBB solution. The acceptor plate was filled with 350 μl of buffer, and the donor plate was carefully assembled over the acceptor plate like a “sandwich.” Finally, the donor plate was filled with 350 μl of donor solution, covered, and incubated for 4 h at 37°C in the dark. After incubation time, 300 μl of the solution was taken from both plates, transferred to separate vials, and dried in the SpeedVac system at 40°C and 13 mbar pressure. Dried acceptor and donor solution were dissolved in 50 μl of pure EtOH before subjecting to UHPLC-Q-TOF-MS analysis. Permeability across in vitro BBB of the bioactive compound was measured according to Equation (1) ([25]), with some modifications in concentration rates.
(1) Pe=-ln[1-CA(t)/Ce]/A^*(1/VD+1/VA)^*t
Cequilibrium was calculated according to the following equation ([2]):
(2) Cequilibrium=[CD(t)*VD+CA(t)*VA]/(VD+VA)

[2] = compounds of RSFE extract, octanol-water partition coefficient
[3] = compounds identified in LPLE extract
[4] = compound within LPLE (Nothofagus pumilio, lenga PLE extract), classes based on Könczöl et al.
[5] = PAMPA, pH 7.4, PAMPA-BBB log Pe (cm s−1)

- Cross BBB potential (in vitro; PAMPA): +++
- PAMPA-BBB log Pe (cm s−1) (in vitro; PAMPA, 4 h): −3.73 cm s−1
Compound: CC/C=C/CC(O)C(O)/C=C/C(O)CCCCCCCC(=O)O (centres unmarked)
- Log P [1, 2]: 2.6

- Cross BBB potential (in vitro; PAMPA): +++
- PAMPA-BBB log Pe (cm s−1) (in vitro; PAMPA, 4 h): −4.22 cm s−1
Compound: COc1ccc(-c2cc(=O)c3c(O)cc(OC)cc3o2)cc1 [4-Methoxytectochrysin]
- Log P [1, 2]: 3.3

Compound: C[C@]12C[C@@H](O)[C@H]3[C@@H](CC[C@]4(O)C[C@@H](O)CC[C@]34CO)[C@@]1(O)CC[C@@H]2c1ccc(=O)oc1 [11α,19-dihydroxytelocinobufagin]
- Log P ([1]; compounds of KD extract): 3.63
- Cross BBB potential (in vitro; compound within KD extract): -

- Cross BBB potential (in vitro; PAMPA): +++
- PAMPA-BBB log Pe (cm s−1) (in vitro; PAMPA, 4 h): −4.06 cm s−1
Compound: O=C(O)C[C@H]1CCC(=O)[C@@H]1C/C=C\CCO [12- Hydroxyjasmonic acid]
- Log P [1, 2]: 0.4

Compound: CC(C)c1cc2c(c(O)c1O)[C@@]13CCCC(C)(C)[C@@H]1C[C@@H]2OC3 [20-Deoxocarnosol]
- Log P [1, 2]: 4.6
- Cross BBB potential (in vitro; compound within RSFE extract): -

Compound: O=C(O[C@@H]1Cc2c(O)cc(O)cc2O[C@@H]1c1ccc(O)c(O)c1)c1cc(O)c(O)c(O)c1 [(-)-Epicatechin gallate]
- Log P [1, 3]: 1.5
- Log P ([1]; compounds of ASFE extract): 1.5
- Cross BBB potential (in vitro; compound within ASFE extract): -
- Cross BBB potential (in vitro; [4]): -

Compound: C[C@@H]1O[C@@H](Oc2c(-c3ccc(O)cc3)oc3cc(O)cc(O)c3c2=O)[C@H](O)[C@H](O)[C@H]1O [Afzelin]
- Cross BBB potential (in vitro; PAMPA): -

Compound: C=C(C)[C@@H]1CC[C@]2(C(=O)O)CC[C@]3(C)[C@H](CC[C@@H]4[C@@]5(C)CC[C@H](O)[C@@](C)(CO)[C@@H]5CC[C@]43C)[C@@H]12 [Anemosapogenin]
- Log P [1, 2]: 7.5
- Cross BBB potential (in vitro; PAMPA): ++ (key: -: not detected in acceptor; +: log Pe > −6.5; ++: log Pe > −5.5; +++: log Pe > −4.5)
- PAMPA-BBB log Pe (cm s−1) (in vitro; PAMPA): −5.26 cm s−1

- Cross BBB potential (in vitro; compound within ASFE extract): -
- Cross BBB potential (in vitro; [4]): -
Compound: O=C1c2c(O)cc(O)cc2O[C@H](c2ccc(O)cc2)[C@H]1O [Aromadendrin]
- Log P [1, 3]: 1.8
- Log P ([1]; compounds of ASFE extract): 1.8

Compound: CC(C)=CCc1cc(/C=C/C(=O)O)cc(CC=C(C)C)c1O [Artepillin C]
- Log P [1, 2]: 5.4
- Cross BBB potential (in vitro; PAMPA): +++
- PAMPA-BBB log Pe (cm s−1) (in vitro; PAMPA, 4 h): −4.42 cm s−1

- Cross BBB potential (in vitro; PAMPA): +++
- Papp at 4 h (in vitro; [5]): 64.6 ×10⁻⁶ cm/s
Compound: C[C@H]1[C@H](C)CC[C@]2(C(=O)O)CC[C@]3(C)C(=CC[C@@H]4[C@@]5(C)C[C@@H](O)[C@H](O)[C@@](C)(CO)[C@@H]5CC[C@]43C)[C@H]12 [Asiatic acid]

Compound: CC(=O)O[C@H]1C[C@@H](O)[C@]2(C=O)[C@H]3CC[C@]4(C)[C@@H](c5ccc(=O)oc5)CC[C@]4(O)[C@@H]3CC[C@]2(O)C1 [Bersaldegenin-3-acetate]
- Log P ([1]; compounds of KD extract): 1.3
- Cross BBB potential (in vitro; compound within KD extract): -

Compound: C[C@]12CC[C@H]3[C@@H](CC[C@]4(O)C[C@@H](O)C[C@@H](O)[C@]34C=O)[C@@]1(O)CC[C@@H]2c1ccc(=O)oc1 [Bersaldegenin]
- Log P ([1]; compounds of KD extract): 0.2
- Cross BBB potential (in vitro; compound within KD extract): -

- Cross BBB potential (in vitro; PAMPA): +
- Papp at 4 h (in vitro; [5]): 0.229 ×10⁻⁶ cm/s
Compound: C=C(C)[C@@H]1CC[C@]2(C(=O)O)CC[C@]3(C)[C@H](CC[C@@H]4[C@@]5(C)CC[C@H](O)C(C)(C)[C@@H]5CC[C@]43C)[C@@H]12 [Betulinic acid]
- Log P [1, 2]: 8.2

Compound: C[C@@]12O[C@H]3C[C@@H](O1)[C@]1(C=O)[C@H]4[C@H](O)C[C@]5(C)[C@@H](c6ccc(=O)oc6)CC[C@]5(O)[C@@H]4CC[C@@]1(C3)O2 [Bryophyllin A]
- Log P ([1]; compounds of KD extract): 0.6
- Cross BBB potential (in vitro; compound within KD extract): -

Compound: CC(=O)O[C@@H]1C[C@H](O)C[C@@]2(O)CC[C@@H]3[C@@H]4[C@@H](C[C@]5(C)[C@@H](c6ccc(=O)oc6)CC[C@]35O)O[C@H](O)[C@]412 [Bryophyllin B]
- Log P ([1]; compounds of KD extract): 0.6
- Cross BBB potential (in vitro; compound within KD extract): -

Compound: O=C(/C=C/c1ccc(O)c(O)c1)c1ccc(O)cc1O [Butein]
- Log P [1, 3]: 2.8
- Log P ([1]; compounds of ASFE extract): 2.8
- Papp at 4 h (in vitro; PAMPA, pH 7.4, PAMPA-BBB log Pe (cm s−1), compound within ASFE extract, 4 h, 37°C, PBS pH 7.4): 2.19 ×10⁻⁶ cm/s
- Papp at 4 h (in vitro; PAMPA, pH 7.4, PAMPA-BBB log Pe, compound within LPLE (Nothofagus pumilio, lenga PLE extract), N.D = not detected in acceptor): 16.6 ×10⁻⁶ cm/s
- Cross BBB potential (in vitro; compound within ASFE extract): + (log Pe > −6.5)
- Cross BBB potential (in vitro; [4]): ++ (log Pe > −5.5)

Compound: O=C(O)/C=C/c1ccc(O)c(O)c1 [Caffeic acid]
- Cross BBB potential (in vitro; PAMPA): -

Compound: O=C(/C=C/c1ccc(O)c(O)c1)O[C@@H]1C[C@](O)(C(=O)O)C[C@@H](O)[C@H]1O [Caffeoylquinic acid (chlorogenic acid), Caffeoylquinic acid]
- Papp at 4 h (in vitro; [5]): 10.2 ×10⁻⁶ cm/s

Compound: O=C(/C=C/c1ccc(O)c(O)c1)O[C@@H](C(=O)O)[C@@H](O)C(=O)O [Caftaric acid]
- Log P ([1]; compounds of ASFE extract): 0.1
- Cross BBB potential (in vitro; PAMPA): -

Compound: CC(C)c1cc2c(c(O)c1O)[C@@]1(C(=O)O)CCCC(C)(C)[C@@H]1CC2 [Carnosic acid]
- Cross BBB potential (in vitro; PAMPA): ++ (key: -: not detected in acceptor; +: log Pe > −6.5; ++: log Pe > −5.5; +++: log Pe > −4.5)
- Papp (in vitro; [5]): 13.5 ×10⁻⁶ cm/s

— paper PMC9243654 (Frontiers in Nutrition, 2022)
